Source: patent publication US11026940B2, “Compositions for the mobilization, homing, expansion and differentiation of stem cells and methods of using the same” (Ampio Pharmaceuticals, Inc., priority 2013, dated 2021)
Several values for one entry are separate records, joined by “and”; a condition that tells them apart may be missing. Equal entries are not always repeated.

How the values were obtained:
Type in all cases: cell-based, human
Collagen 2A1 = assay: Stem cell chondrogenesis, real time PCR gene expression: Collagen 2A1; details: for Cp Coll / Mean regulation: Collagen 2A1; for Cp Coll / Mean regulation / Mean ΔCp / ΔCp: Day 22; for Mean regulation: vs saline; for Mean ΔCp / ΔCp: Collagen 2A1 vs GAPDH; for regulation, Collagen 2A1 / Mean regulation, Collagen 2A1: fold regulation vs saline; for regulation, Collagen 2A1 / ΔCp, Collagen 2A1 / 2^-ΔΔCp vs saline, Collagen 2A1 / ΔΔCp vs saline, Collagen 2A1: single replicate well; for Mean regulation, Collagen 2A1 / Mean ΔCp, Collagen 2A1: triplicate wells; for ΔCp, Collagen 2A1: human bone marrow MSC, chondrogenic medium + TGF beta 3; for ΔCp, Collagen 2A1 / 2^-ΔΔCp vs saline, Collagen 2A1 / ΔΔCp vs saline, Collagen 2A1 / Mean ΔCp, Collagen 2A1: vs Actin
MMP13 = assay: Stem cell chondrogenesis, real time PCR gene expression: MMP13; details: for regulation, MMP13 / Mean regulation, MMP13 / ΔCp, MMP13 / 2^-ΔΔCp vs saline, MMP13 / ΔΔCp vs saline, MMP13 / Mean ΔCp, MMP13: Day 7; for regulation, MMP13 / Mean regulation, MMP13: fold regulation vs saline; for regulation, MMP13 / ΔCp, MMP13 / 2^-ΔΔCp vs saline, MMP13 / ΔΔCp vs saline, MMP13: single replicate well; for Mean regulation, MMP13 / Mean ΔCp, MMP13: triplicate wells; for ΔCp, MMP13: human bone marrow MSC, chondrogenic medium + TGF beta 3; for ΔCp, MMP13 / 2^-ΔΔCp vs saline, MMP13 / ΔΔCp vs saline, MMP13 / Mean ΔCp, MMP13: vs Actin; for Cp, MMP13 / ΔΔCp vs saline / 2^-ΔΔCp vs saline / Mean regulation / Mean ΔCp / ΔCp: Day 22; for Cp, MMP13 / ΔΔCp vs saline / 2^-ΔΔCp vs saline / Mean regulation: MMP13; for Mean regulation: vs saline; for Mean ΔCp / ΔCp: MMP13 vs GAPDH
SOX9 = assay: Stem cell chondrogenesis, real time PCR gene expression: SOX9; details: Day 14; for regulation, SOX9 / Mean regulation, SOX9: fold regulation vs saline; for regulation, SOX9 / ΔCp, SOX9 / 2^-ΔΔCp vs saline, SOX9 / ΔΔCp vs saline, SOX9: single replicate well; for Mean regulation, SOX9 / Mean ΔCp, SOX9: triplicate wells; for ΔCp, SOX9: human bone marrow MSC, chondrogenic medium + TGF beta 3; for ΔCp, SOX9 / 2^-ΔΔCp vs saline, SOX9 / ΔΔCp vs saline, SOX9 / Mean ΔCp, SOX9: vs Actin
Experimental: The treatment protocol included expanding 5 HUXMA stem cells in 182 cm^2 flasks containing 40 […] to 80-90% confluence. Cells were trypsinized from the flasks and a 1.0×10^7 cell suspension of HUXMA stem cells was warmed in Cyagen Chondrogenic Differentiation medium. 20 μl of warmed cell suspension was spotted in the middle of each well of a 24-well tissue culture plate (200,000 cells per spot), and incubated at 37° C. and 5% CO2 for one hour. […] Medium exchanges were performed every 3-4 days by aspirating the medium from the wells and replacing with fresh chondrogenic medium, diluted stocks, and TGF beta 3, as described above. […] Medium from the wells was removed and saved for further protein analysis. Qiagen RNeasy plus lysis buffer (with 2mercaptoethanol) was added to each well and gently shaken for 10 minutes. The lysed cell suspensions from each well were transferred to Qiashredder columns and spun at 14,000 rpm for 2 minutes. RNA isolation proceeded by RNeasyTM plus manufacturer's protocol. RNA was eluted from the Qiagen columns using 25 μl RNase free water. cDNA synthesis and real time PCR was conducted as follows. First strand synthesis of cDNA from all samples was performed in 20 μl total volume using 10 μl isolated RNA. All cDNA reactions were then diluted with 30 μl nuclease free water. Real time PCR was then performed using 5 μl diluted cDNA, Roche Syber green master mix, and Qiagen RT^2 gPCRTM primer pairs in 20 μl total reaction volume.

Aggrecan = assay: Stem cell chondrogenesis, real time PCR gene expression: Aggrecan; details: Day 22; for Mean ΔCp / ΔCp: Aggrecan vs Actin; for Cp Agg / Mean regulation: Aggrecan; for Mean regulation: vs saline
TIMP1 = assay: Stem cell chondrogenesis, real time PCR gene expression: TIMP1; details: Day 22; for Cp TIMP1 / 2-^ΔΔCp vs saline / Mean regulation / regulation: TIMP1; for Mean regulation / regulation: vs saline; for Mean ΔCp / ΔCp: TIMP1 vs Actin
Experimental: • Stem Cells: Bone marrow derived human mesenchymal stem cells: Passage 5 Bone marrow derived human mesenchymal stem cells (HUXMA-01001, Cyagen Biosciences, Sunnyvale Calif.) • Mesenchymal Stem Cell Chondrogenic Differentiation medium (GUXMX-90041, Cyagen Biosciences, Sunnyvale Calif.) • TheraPEAK MSCGM chemically defined Stem cell medium (190632 Lonza) • 1 mM Dexamethasone acetate and mifepristone in absolute ethanol (Sigma) • Saline or 0.9% Sodium chloride for injection ZR Flush (Excelsior Medical, Neptune N.J.) • Sterile filtered 0.6 mM sodium caprylate in saline (sigma) • Sterile filtered 3 mM NAT in saline (sigma); To prepare, heat at 60° C. for 30 minutes then sonicate for 5 minutes. • Sterile filtered 10 mM DADKP in saline • 0.2 μM syringe filters • Hepes buffered saline, Trypsin/EDTA, Trypsin neutralizing solution (Lonza reagent pack) • 182 cm2 tissue culture flasks • pipettes and sterile tips • Tissue culture hood, humidified CO2 incubator, water or bead bath • 24 well tissue culture plates • Qiagen RNeasy plus spin columns (Qiagen 74134) • Qiagen RT2 qPCR primer pairs for Collagen 2A1, MMP13, TIMP1, Aggrecan, GAPDH, and Actin B • Roche Sybr green I master mix and Invitrogen Superscript VILO master mix. • Roche 480 lightcycler
The following stock drug treatment solutions were prepared in saline for injection and warmed to 37° C. in bath: • 4 μM dexamethasone • 4 μM mifepristone • 3 mM NAT • 0.6 mM caprylate • 80 μM DADKP • Mix of 3 mM NAT, 0.6 mM caprylate, 80 μM DADKP (“Ampion” mix)
Cyagen Chondrogenic Differentiation medium was prepared by manufacturer protocols but excluding dexamethasone and TGF beta 3 supplements, and warmed to 37° C. in bath.
The treatment protocol included expanding 5 HUXMA stem cells in 182 cm^2 flasks containing 40 mls TheraPEAK™ MSCGM to 80-90% confluence. Cells were trypsinized from the flasks and a 1.0×10^7 cell suspension of HUXMA stem cells was warmed in Cyagen Chondrogenic Differentiation medium. 20 μl of warmed cell suspension was spotted in the middle of each well of a 24-well tissue culture plate (200,000 cells per spot), and incubated at 37° C. and 5% CO2 for one hour.
The plates were removed from the incubator and an additional 720 μl chondrogenic medium was added to each well. 250 μl saline, or drug solutions were added to the appropriate wells in triplicate (bringing the final drug dilution to one-quarter of the stock drug treatment solution concentrations). 10 μl of TGF beta 3 solution (supplied by Cyagen) was added to each well, and the plates were returned to the incubator.
RNA isolation and analysis was conducted for all plates as follows at days 7, 14, and 22 post treatment (with the described medium exchanges). […] Qiagen RNeasy plus lysis buffer (with 2mercaptoethanol) was added to each well and gently shaken for 10 minutes. The lysed cell suspensions from each well were transferred to Qiashredder columns and spun at 14,000 rpm for 2 minutes. RNA isolation proceeded by RNeasy™ plus manufacturer's protocol. RNA was eluted from the Qiagen columns using 25 μl RNase free water.
cDNA synthesis and real time PCR was conducted as follows. First strand synthesis of cDNA from all samples was performed in 20 μl total volume using 10 μl isolated RNA. All cDNA reactions were then diluted with 30 μl nuclease free water. Real time PCR was then performed using 5 μl diluted cDNA, Roche Syber green master mix, and Qiagen RT^2 gPCR™ primer pairs in 20 μl total reaction volume. Relative gene expression was determined by delta deta Ct method.

Structure (SMILES): CC#C[C@]1(O)CC[C@H]2[C@@H]3CCC4=CC(=O)CCC4=C3[C@@H](c3ccc(N(C)C)cc3)C[C@@]21C [Mifepristone, mifepristone]
- Cp Coll (Collagen 2A1; Table 12): 25.99 and 27.6 and 26.84
- Cp Coll (Collagen 2A1; Table 16): 25.99 and 27.6 and 26.84
- Mean regulation (Collagen 2A1; Table 12): 16.82
- Mean regulation (Collagen 2A1; Table 16): 16.82
- Mean ΔCp (Collagen 2A1; Table 12): 9.22
- ΔCp (Collagen 2A1; Table 12): 8.52 and 10.14 and 9
- Mean ΔCp (Collagen 2A1; Table 16): 9.22
- ΔCp (Collagen 2A1; Table 16): 8.52 and 10.14 and 9
- regulation, Collagen 2A1 (Collagen 2A1; Day 7): −1.12 and −3.11 and −1.23
- Mean regulation, Collagen 2A1 (Collagen 2A1; Day 7): −1.82
- ΔCp, Collagen 2A1 (Collagen 2A1; Day 7): 6.9 and 8.37 and 7.03
- 2^-ΔΔCp vs saline, Collagen 2A1 (Collagen 2A1; Day 7): 0.8909 and 0.3216 and 0.8141
- ΔΔCp vs saline, Collagen 2A1 (Collagen 2A1; Day 7): 0.167 and 1.637 and 0.297
- Mean ΔCp, Collagen 2A1 (Collagen 2A1; Day 7): 7.433
- regulation, Collagen 2A1 (Collagen 2A1; Day 14): 1.21 and 1.07 and 1.57
- Mean regulation, Collagen 2A1 (Collagen 2A1; Day 14): 1.28
- ΔCp, Collagen 2A1 (Collagen 2A1; Day 14): 10.78 and 10.96 and 10.41
- 2^-ΔΔCp vs saline, Collagen 2A1 (Collagen 2A1; Day 14): 1.2114 and 1.0693 and 1.5655
- ΔΔCp vs saline, Collagen 2A1 (Collagen 2A1; Day 14): −0.28 and −0.1 and −0.65
- Mean ΔCp, Collagen 2A1 (Collagen 2A1; Day 14): 10.72
- regulation, MMP13 (MMP13): −1.49 and −1.34
- Mean regulation, MMP13 (MMP13): −2.47
- ΔCp, MMP13 (MMP13): 5.21 and 6.83 and 5.06
- 2^-ΔΔCp vs saline, MMP13 (MMP13): 0.6721 and 0.2186 and 0.7457
- ΔΔCp vs saline, MMP13 (MMP13): 0.573 and 2.193 and 0.423
- Mean ΔCp, MMP13 (MMP13): 5.7
- Cp, MMP13 (MMP13; Table 12): 20.98 and 21.32 and 21.37
- ΔΔCp vs saline (MMP13; Table 12): 0.517 and 0.867 and 0.537
- 2^-ΔΔCp vs saline (MMP13; Table 16): 0.699 and 0.5484 and 0.6894
- Cp, MMP13 (MMP13; Table 16): 20.98 and 21.32 and 21.37
- ΔΔCp vs saline (MMP13; Table 16): 0.517 and 0.867 and 0.537
- Mean regulation (MMP13; Table 12): −1.57
- Mean regulation (MMP13; Table 16): −1.57
- Mean ΔCp (MMP13; Table 12): 3.633
- ΔCp (MMP13; Table 12): 3.51 and 3.86 and 3.53
- Mean ΔCp (MMP13; Table 16): 3.633
- ΔCp (MMP13; Table 16): 3.51 and 3.86 and 3.53
- regulation, SOX9 (SOX9): 1.24 and 1.17 and 1.16
- Mean regulation, SOX9 (SOX9): 1.19
- ΔCp, SOX9 (SOX9): 6.87 and 6.95 and 6.96
- 2^-ΔΔCp vs saline, SOX9 (SOX9): 1.2397 and 1.1728 and 1.1647
- ΔΔCp vs saline, SOX9 (SOX9): −0.31 and −0.23 and −0.22
- Mean ΔCp, SOX9 (SOX9): 6.927
- Mean ΔCp (Aggrecan; Table 12): 9.247
- ΔCp (Aggrecan; Table 12): 10.29 and 8.98 and 8.47
- Mean ΔCp (Aggrecan; Table 16): 9.247
- ΔCp (Aggrecan; Table 16): 10.29 and 8.98 and 8.47
- Cp Agg (Aggrecan; Table 12): 25.97 and 24.4 and 23.94
- Cp Agg (Aggrecan; Table 16): 25.97 and 24.4 and 23.94
- Mean regulation (Aggrecan; Table 12): 1.55
- Mean regulation (Aggrecan; Table 16): 1.55
- Cp TIMP1 (TIMP1; Table 12): 19.69 and 19.8 and 19.76
- 2-^ΔΔCp vs saline (TIMP1; Table 16): 0.6958 and 0.8448 and 0.6537
- Cp TIMP1 (TIMP1; Table 16): 19.76 and 19.69 and 19.8
- Mean regulation (TIMP1; Table 12): −1.38
- Mean ΔCp (TIMP1; Table 12): 4.227
- ΔCp (TIMP1; Table 12): 4.01 and 4.38 and 4.29
- Mean ΔCp (TIMP1; Table 16): 4.227
- ΔCp (TIMP1; Table 16): 4.29 and 4.01 and 4.38

Structure (SMILES): CC(=O)N[C@@H](Cc1c[nH]c2ccccc12)C(=O)O [NAT, N-acetyl-tryptophan]
- Cp Coll (Collagen 2A1; Table 12): 24.2 and 23.63 and 24.67
- Cp Coll (Collagen 2A1; Table 16): 24.2 and 23.63 and 24.67
- Mean regulation (Collagen 2A1; Table 12): 262.94
- Mean regulation (Collagen 2A1; Table 16): 262.94
- Mean ΔCp (Collagen 2A1; Table 12): 5.207
- ΔCp (Collagen 2A1; Table 12): 4.75 and 4.87 and 6
- Mean ΔCp (Collagen 2A1; Table 16): 5.207
- ΔCp (Collagen 2A1; Table 16): 4.75 and 4.87 and 6
- regulation, Collagen 2A1 (Collagen 2A1; Day 7): −1.40 and 1.01 and −1.43
- Mean regulation, Collagen 2A1 (Collagen 2A1; Day 7): −0.61
- ΔCp, Collagen 2A1 (Collagen 2A1; Day 7): 7.22 and 6.72 and 7.25
- 2^-ΔΔCp vs saline, Collagen 2A1 (Collagen 2A1; Day 7): 0.7137 and 1.0093 and 0.699
- ΔΔCp vs saline, Collagen 2A1 (Collagen 2A1; Day 7): 0.487 and −0.01 and 0.517
- Mean ΔCp, Collagen 2A1 (Collagen 2A1; Day 7): 7.063
- regulation, Collagen 2A1 (Collagen 2A1; Day 14): −3.42 and 7.09 and 7.76
- Mean regulation, Collagen 2A1 (Collagen 2A1; Day 14): 3.81
- ΔCp, Collagen 2A1 (Collagen 2A1; Day 14): 12.83 and 8.23 and 8.1
- 2^-ΔΔCp vs saline, Collagen 2A1 (Collagen 2A1; Day 14): 0.2925 and 7.0943 and 7.7633
- ΔΔCp vs saline, Collagen 2A1 (Collagen 2A1; Day 14): 1.773 and −2.83 and −2.96
- Mean ΔCp, Collagen 2A1 (Collagen 2A1; Day 14): 9.72
- regulation, MMP13 (MMP13): −1.43 and −1.81 and −2.45
- Mean regulation, MMP13 (MMP13): −1.89
- ΔCp, MMP13 (MMP13): 5.15 and 5.49 and 5.93
- 2^-ΔΔCp vs saline, MMP13 (MMP13): 0.7006 and 0.5535 and 0.408
- ΔΔCp vs saline, MMP13 (MMP13): 0.513 and 0.853 and 1.293
- Mean ΔCp, MMP13 (MMP13): 5.523
- Cp, MMP13 (MMP13; Table 12): 22.68 and 21.71 and 21.65
- 2^-ΔΔCp vs saline (MMP13; Table 16): 0.8487 and 1.0305 and 1.0093
- Cp, MMP13 (MMP13; Table 16): 22.68 and 21.71 and 21.65
- Mean regulation (MMP13; Table 12): 0.29
- Mean regulation (MMP13; Table 16): 0.29
- Mean ΔCp (MMP13; Table 12): 3.053
- ΔCp (MMP13; Table 12): 3.23 and 2.95 and 2.98
- Mean ΔCp (MMP13; Table 16): 3.053
- ΔCp (MMP13; Table 16): 3.23 and 2.95 and 2.98
- regulation, SOX9 (SOX9): −2.30 and 2.11 and 2.04
- Mean regulation, SOX9 (SOX9): 0.62
- ΔCp, SOX9 (SOX9): 8.38 and 6.1 and 6.15
- 2^-ΔΔCp vs saline, SOX9 (SOX9): 0.4353 and 2.114 and 2.042
- ΔΔCp vs saline, SOX9 (SOX9): 1.2 and −1.08 and −1.03
- Mean ΔCp, SOX9 (SOX9): 6.877
- Mean ΔCp (Aggrecan; Table 12): 7.1
- ΔCp (Aggrecan; Table 12): 8.24 and 5.62 and 7.44
- Mean ΔCp (Aggrecan; Table 16): 7.1
- ΔCp (Aggrecan; Table 16): 8.24 and 5.62 and 7.44
- Cp Agg (Aggrecan; Table 12): 25.43 and 23.3 and 24.4
- Cp Agg (Aggrecan; Table 16): 25.43 and 23.3 and 24.4
- Mean regulation (Aggrecan; Table 12): 11.66
- Mean regulation (Aggrecan; Table 16): 11.66
- Cp TIMP1 (TIMP1; Table 12): 20.59 and 21.28 and 20.57
- 2-^ΔΔCp vs saline (TIMP1; Table 16): 1.2894 and 1.1225 and 1.1147
- Cp TIMP1 (TIMP1; Table 16): 20.59 and 21.28 and 20.57
- Mean regulation (TIMP1; Table 12): 1.18
- regulation (TIMP1; Table 12): 1.29 and 1.12 and 1.11
- regulation (TIMP1; Table 16): 1.29 and 1.12 and 1.11
- Mean ΔCp (TIMP1; Table 12): 3.537
- ΔCp (TIMP1; Table 12): 3.4 and 3.6 and 3.61
- Mean ΔCp (TIMP1; Table 16): 3.537
- ΔCp (TIMP1; Table 16): 3.4 and 3.6 and 3.61
